Source: ChEMBL document CHEMBL1201862, “PubChem BioAssay data set” (2004)
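A five-concentration, 48-hour dose response in 96-well plates underlies each endpoint, interpolated linearly between surrounding concentrations. GI50 marks 50% less growth.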 Activity calls are given as the source filed them. Rule as the data show it: active = GI50 up to about 1.1 µM and inactive = higher.

Tests used:
Experiment in all cases: NCI anticancer screen, dose series, 48 h
A549 = tested on: A549
CAKI-1 = tested on: CAKI-1
HCT-116 = tested on: HCT-116
HL-60 = tested on: HL-60
Hs-578T = tested on: Hs-578T
M14 = tested on: M14
MDA-MB-435 = tested on: MDA-MB-435
MDA-N = tested on: MDA-N
MOLT-4 = tested on: MOLT-4
NCI-H460 = tested on: NCI-H460
NCI-H522 = tested on: NCI-H522
RXF 393 = tested on: RXF 393
SF-295 = tested on: SF-295
SF-539 = tested on: SF-539
SK-MEL-28 = tested on: SK-MEL-28
SK-MEL-2 = tested on: SK-MEL-2
SN12C = tested on: SN12C
SNB-19 = tested on: SNB-19
T47D = tested on: T47D
UACC-257 = tested on: UACC-257

Measured: GI50

C[Si](C)(C)C1=C([Si](C)(C)C)C(Cl)(Cl)C1=O
active: HL-60 0.217 µM | MOLT-4 0.671 µM
inactive: A549 19.8 µM | CAKI-1 2.36 µM | HCT-116 3.39 µM | Hs-578T 10.4 µM | M14 2.65 µM | MDA-MB-435 2 µM | MDA-N 1.99 µM | NCI-H460 12.4 µM | NCI-H522 1.27 µM | RXF 393 1.9 µM | SF-295 9.1 µM | SF-539 5.22 µM | SK-MEL-28 2.79 µM | SK-MEL-2 9.12 µM | SN12C 3.31 µM | SNB-19 16 µM | T47D 1.74 µM | UACC-257 2.05 µM

O=C(NNC(=O)c1ccccc1O)c1ccco1
inactive: A549 > 100 µM | CAKI-1 > 100 µM | HCT-116 97.5 µM | HL-60 28.9 µM | Hs-578T > 100 µM | M14 > 100 µM | MDA-MB-435 > 100 µM | MDA-N > 100 µM | MOLT-4 > 100 µM | NCI-H460 45.4 µM | NCI-H522 57.3 µM | RXF 393 > 100 µM | SF-295 > 100 µM | SF-539 > 100 µM | SK-MEL-28 > 100 µM | SK-MEL-2 > 100 µM | SN12C > 100 µM | SNB-19 > 100 µM | T47D > 100 µM | UACC-257 > 100 µM

COc1c(-c2ccc3c(c2)OCO3)oc2cc(O)cc(O)c2c1=O
inactive: A549 47.3 µM | CAKI-1 27.7 µM | HCT-116 62.1 µM | HL-60 41.5 µM | Hs-578T 14.3 µM | M14 69.8 µM | MDA-MB-435 45.7 µM | MDA-N 62.7 µM | MOLT-4 21.2 µM | NCI-H460 64 µM | NCI-H522 19.2 µM | RXF 393 14.9 µM | SF-295 34.4 µM | SF-539 39.6 µM | SK-MEL-28 > 100 µM | SK-MEL-2 > 100 µM | SN12C 51.1 µM | SNB-19 > 100 µM | T47D 12.9 µM | UACC-257 > 100 µM

N#Cc1c(O)c(/C=N/c2ncccn2)c(=O)n2c1[nH]c1ccccc12
inactive: A549 > 100 µM | CAKI-1 > 100 µM | HCT-116 > 100 µM | HL-60 > 100 µM | Hs-578T > 100 µM | M14 > 100 µM | MDA-MB-435 > 100 µM | MDA-N > 100 µM | MOLT-4 > 100 µM | NCI-H460 > 100 µM | NCI-H522 > 100 µM | RXF 393 > 100 µM | SF-295 > 100 µM | SF-539 > 100 µM | SK-MEL-28 > 100 µM | SK-MEL-2 > 100 µM | SN12C > 100 µM | SNB-19 > 100 µM | T47D > 100 µM | UACC-257 > 100 µM

CC1(C)O[C@H]2OC3CCC(=O)CC3(O)[C@H]2O1 (stereo not given in full)
inactive: A549 > 100 µM | CAKI-1 > 100 µM | HCT-116 > 100 µM | HL-60 > 100 µM | Hs-578T > 100 µM | M14 > 100 µM | MDA-MB-435 > 100 µM | MDA-N > 100 µM | MOLT-4 > 100 µM | NCI-H460 > 100 µM | NCI-H522 > 100 µM | RXF 393 > 100 µM | SF-295 > 100 µM | SF-539 > 100 µM | SK-MEL-28 > 100 µM | SK-MEL-2 > 100 µM | SN12C > 100 µM | SNB-19 > 100 µM | T47D > 100 µM | UACC-257 > 100 µM

CCCCSC1=N/C(=C\c2ccccc2O)C(=O)N1
inactive: A549 20.7 µM | CAKI-1 > 100 µM | HCT-116 40.3 µM | HL-60 94.6 µM | Hs-578T > 100 µM | M14 71.6 µM | MDA-MB-435 > 100 µM | MDA-N 76 µM | MOLT-4 68.9 µM | NCI-H460 53.2 µM | NCI-H522 69 µM | RXF 393 50.5 µM | SF-295 92 µM | SF-539 41.5 µM | SK-MEL-28 > 100 µM | SK-MEL-2 57.8 µM | SN12C 79.1 µM | SNB-19 77.8 µM | T47D 32.7 µM | UACC-257 31.2 µM

Nc1ccn(C2CCC(COP(=O)(O)OCC(O)COP(=O)(O)OCC3OC(n4cc(F)c(=O)[nH]c4=O)CC3O)O2)c(=O)n1 (stereo not given)
active: A549 0.386 µM | CAKI-1 0.316 µM | HCT-116 0.581 µM | HL-60 0.0716 µM | M14 0.473 µM | MOLT-4 0.102 µM | NCI-H460 < 0.01 µM | NCI-H522 0.628 µM | SF-295 0.0459 µM | SF-539 0.0216 µM | SN12C 0.135 µM | SNB-19 0.211 µM
inactive: Hs-578T 1.96 µM | MDA-MB-435 14.8 µM | MDA-N 8.34 µM | RXF 393 3.33 µM | SK-MEL-28 26.4 µM | SK-MEL-2 75.3 µM | T47D 1.42 µM | UACC-257 > 100 µM

CCOC(=O)/C=C(\C(=O)OCC)n1ccc(=O)n(Cc2cn(COCCOC(C)=O)nn2)c1=O
inactive: A549 > 76.4 µM | CAKI-1 8.67 µM | HCT-116 16.3 µM | HL-60 12.7 µM | Hs-578T 26.5 µM | M14 39.8 µM | MDA-MB-435 18.7 µM | MDA-N 35.2 µM | MOLT-4 14.9 µM | NCI-H460 > 38.1 µM | NCI-H522 2.71 µM | RXF 393 15.7 µM | SF-295 > 100 µM | SF-539 20.1 µM | SK-MEL-28 18 µM | SK-MEL-2 20.8 µM | SN12C 20.7 µM | SNB-19 > 50.4 µM | T47D 24.3 µM | UACC-257 22 µM

O=C1C(Cl)=C(N2CCN(c3ncccn3)CC2)C(=O)c2c(O)ccc(O)c21
inactive: A549 7.16 µM | CAKI-1 2.05 µM | HCT-116 1.69 µM | Hs-578T 2.9 µM | M14 1.88 µM | MDA-MB-435 1.67 µM | MDA-N 1.78 µM | NCI-H460 15.3 µM | NCI-H522 2.2 µM | RXF 393 1.78 µM | SF-295 12.4 µM | SF-539 1.97 µM | SK-MEL-28 2.23 µM | SN12C 1.85 µM | SNB-19 6.55 µM | T47D 2.64 µM | UACC-257 1.84 µM
active: HL-60 0.0515 µM | MOLT-4 0.697 µM | SK-MEL-2 1.03 µM

CC(=O)Oc1ccc(/C=C/C(=O)OCCCOC(=O)/C=C/c2ccc(OC(C)=O)c(OC(C)=O)c2)cc1OC(C)=O
active: HL-60 < 0.01 µM
inactive: A549 > 100 µM | CAKI-1 > 100 µM | HCT-116 58.1 µM | Hs-578T > 100 µM | M14 > 100 µM | MDA-MB-435 > 100 µM | MDA-N > 100 µM | MOLT-4 > 100 µM | NCI-H460 > 100 µM | NCI-H522 > 100 µM | RXF 393 > 100 µM | SF-295 77.4 µM | SF-539 > 100 µM | SK-MEL-28 > 100 µM | SK-MEL-2 > 100 µM | SN12C > 100 µM | SNB-19 > 100 µM | T47D > 100 µM | UACC-257 > 100 µM
